Assay results as given in PubChem BioAssay (NCI).
Several values for one entry are separate records, joined by “and”; a condition that tells them apart may be missing. Equal values may be shown once.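 Step 1: Grow cells in 96-well plates. Step 2: Expose to compound for 48 hours at 5 concentrations. Step 3: Interpolate endpoints linearly; if unreached, use highest concentration. The concentration for 50% growth inhibition is given as GI50. TGI: total growth inhibition.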

Columns and labels:
Test in all cases: NCI tumour cell line growth inhibition, 48 h
[1] = tested on: MDA-N
[2] = tested on: DMS 114 small cell lung
[3] = tested on: KM20L2 colon
[4] = tested on: XF 498 CNS
[5] = tested on: LXFL 529 NSCLC
[6] = tested on: DMS 273 small cell lung
[7] = tested on: HOP-18 NSCLC
[8] = tested on: RXF-631 renal

Structure (SMILES)	TGI [1]	TGI [2]	TGI [3]	TGI [4]	TGI [5]	TGI [6]	TGI [7]	TGI [8]	also measured
O=[N+]([O-])c1cc2c([N+](=O)[O-])cccc2o1	23.6 µM	–	–	–	–	–	–	–	–
CCOC(=O)CNc1nnnn1C1OC(CO)C(O)C1O (centres undefined)	–	> 100 µM	> 100 µM	> 100 µM	> 100 µM	> 100 µM	–	–	–
C=C(CCCO)[C@@H]1CC[C@@](C)(O)[C@H]1C	–	> 100 µM	> 100 µM	> 100 µM	> 100 µM	> 100 µM	> 100 µM	> 100 µM	–
O=C(O[C@H]1CCN2C[C@H]3C[C@H](CN4C(=O)CCC[C@H]34)[C@@H]2C1)c1ccc(O)cc1	> 100 µM	–	–	–	–	–	–	–	–
CCN(CC)CCNc1ccc2nc(C)n3c4ccc(O)cc4c(=O)c1c23	–	10.4 µM	–	–	16.5 µM	3.15 µM	–	7.51 µM	–
Cc1ccc2nc(NC(=O)/C(=N\NC(=S)NN)C3C(=O)NC(=S)NC3=O)sc2c1	–	–	> 100 µM	> 100 µM	> 100 µM	> 100 µM	> 100 µM	> 100 µM	–
Nc1ccc(Sc2c3ccccc3nc3ccccc23)cc1	38.5 µM	38 µM	33.1 µM	28 µM	21 µM	28.8 µM	41.7 µM	–	–
COC[C@H](C)N=CN1CCc2ccccc2C1(Cc1ccccc1)Cc1ccccc1	–	–	24.7 µM	24.8 µM	25.3 µM	–	24 µM	34.9 µM	–
[CH3][Sn]([CH3])([CH3])[O][N+](=O)[O-]	> 10 µM	–	–	–	–	–	–	–	GI50 [1]: 5.14 µM
Cn1cnc([N+](=O)[O-])c1Sc1nccc(=O)[nH]1	–	> 100 µM	–	> 100 µM	> 100 µM	> 100 µM	> 100 µM	> 100 µM	–
C[CH2][Sn]([CH2]C)([O]C(=O)c1ccc(OC)c(OC)c1OC)[O]C(=O)c1ccc(OC)c(OC)c1OC	> 100 µM	> 72.8 µM	> 100 µM	> 71.5 µM	25.3 µM	> 100 µM	32.7 µM	–	GI50 [2]: 25.7 µM; GI50 [7]: 18.7 µM; GI50 [1]: > 100 µM; GI50 [3]: > 100 µM; GI50 [4]: 34.6 µM; GI50 [5]: 12.6 µM; GI50 [6]: > 100 µM
Cc1ccc(NC(=O)OCC(COc2ccc(Cl)cc2Cl)OC(=O)Nc2ccc(C)cc2)cc1 (centres undefined)	–	> 100 µM	> 100 µM	–	> 100 µM	> 100 µM	> 100 µM	–	–
CCN(CC)CCn1c2ccccc2c(=O)c2c(OC)ccc(OC)c21	–	–	> 100 µM	> 100 µM	> 100 µM	> 100 µM	–	–	–
C=CCN(N=O)C(=O)NCCCCC(NC(C)=O)C(=O)NCc1ccccc1 (centres undefined)	–	> 100 µM	> 100 µM	> 100 µM	> 100 µM	> 100 µM	> 100 µM	> 100 µM	–
CC1C2CC=CC(=O)[C@@]2(C)CCC12OCCO2 (some centres undefined)	–	> 100 µM	> 100 µM	–	> 100 µM	> 100 µM	–	–	–
O=C(O)CCC(C(=O)O)N1C(=O)C2C3CCC(C3)C2C1=O (centres undefined)	> 100 µM	–	–	–	–	–	–	–	–
COc1ccc2c(c1OC(C)=O)C1=CC(=O)CCC13CCNC3C2 (centres undefined)	> 100 µM	–	–	–	–	–	–	–	–
COc1ccc2nc(NC(=O)C(=O)NNC(=O)c3ccncc3)sc2c1	–	> 100 µM	> 100 µM	> 100 µM	> 100 µM	–	> 100 µM	–	–
CCOCc1cc(=O)c2c(OC)cc3c(c2o1)CCC(C)(C)O3	–	–	> 100 µM	> 100 µM	> 100 µM	–	> 100 µM	–	–
CC(C)C1N2CCCCC2[C@@H]2c3[nH]c4ccccc4c3CCN12 (some centres undefined)	–	> 100 µM	> 100 µM	> 100 µM	> 100 µM	> 100 µM	> 100 µM	–	–

Structure (SMILES)	TGI [1]	TGI [2]	TGI [3]	TGI [4]	TGI [5]	TGI [6]	TGI [7]	TGI [8]	also measured
CCOC(=O)C(=O)Nc1ccccc1C(C)C	–	> 100 µM	> 100 µM	> 100 µM	> 100 µM	> 100 µM	> 100 µM	> 100 µM	–
CCOC(=O)C(C(O)c1ccc([N+](=O)[O-])cc1)P(=O)(OCC)OCC (centres undefined)	–	–	> 100 µM	> 100 µM	> 100 µM	> 100 µM	> 100 µM	> 100 µM	–
O=c1cc(-c2ccccc2)[nH]c2cc(Cl)ccc12	–	3.29 µM	3.2 µM	1.71 µM	53.2 µM	10.5 µM	> 100 µM	–	–
c1ccc(N/N=C2\NN=C(c3ccccc3)CS2)cc1	–	–	22.8 µM	–	–	–	–	35.8 µM	–
O=C(O)Cc1cccc2c(=O)c3cccc([N+](=O)[O-])c3oc12	> 100 µM	–	–	–	–	–	–	–	–
C/C(=N/Nc1nc(C)cc(=O)[nH]1)C(=O)O	> 100 µM	–	–	–	–	–	–	–	–
CCc1cccc(C)c1NC(=S)NC(=O)c1ccccc1C(=O)NC(=S)Nc1c(C)cccc1CC	–	70.8 µM	> 100 µM	–	> 100 µM	> 100 µM	> 100 µM	–	–
Cc1ccc(OCC2OC(n3cnc4c(Br)nc(Br)nc43)CC2Oc2ccc(C)cc2)cc1 (centres undefined)	17.4 µM and 9.89 µM	–	–	–	–	–	–	–	GI50 [1]: 6.2 µM
CCN=C(C#N)NCC	–	92 µM	> 100 µM	> 100 µM	> 100 µM	> 100 µM	> 100 µM	–	–
COc1cccc2c1C(=O)c1c(O)c3c(c(O)c1C2=O)CC(O)(C(=O)CO)CC3OC1CC(N)C(O)C(C)O1 (centres undefined)	75 µg/mL and > 150 µg/mL	–	–	–	–	–	–	–	GI50 [1]: 37.5 µg/mL and 69.1 µg/mL
O=C1C2C3C=CC(C2C(=O)N1CN1CCSCC1)C1C2C(=O)N(CN4CCSCC4)C(=O)C2C31 (centres undefined)	–	> 56.1 µM	> 100 µM	> 100 µM	> 100 µM	> 61.4 µM	91.5 µM	> 100 µM	–
COc1ccc(CCc2cc(OC)c(O)c(OC)c2)cc1	–	> 100 µM	> 100 µM	> 100 µM	> 100 µM	> 100 µM	–	> 100 µM	–
Cc1cc(Cl)ccc1NC(=O)C(=O)C(C(=O)c1ccccc1)C1OC(=O)c2ccccc21 (centres undefined)	–	> 100 µM	> 100 µM	> 100 µM	> 100 µM	> 100 µM	> 100 µM	–	–
c1ccc2c(NCCCCCCNc3cccc4ccccc34)cccc2c1	–	> 100 µM	> 100 µM	> 100 µM	> 100 µM	> 100 µM	> 100 µM	> 100 µM	–
CC(=O)O[C@H]1CC2C=CC3C(CCC31)O2 (some centres undefined)	–	> 100 µM	> 100 µM	> 100 µM	> 100 µM	> 100 µM	> 100 µM	–	–
CCOC(=O)c1cccnc1C(OC(C)=O)OC(C)=O	–	> 100 µM	> 100 µM	> 100 µM	> 100 µM	> 100 µM	> 100 µM	–	–
CCOC1CC2OC(=O)C1C=C2C(=O)OC (centres undefined)	–	54.9 µM	> 100 µM	53.9 µM	36.1 µM	–	> 100 µM	–	–
[O-]c1c2c(nn1-c1ccc(Cl)cc1)c1ccccc1c[n+]2Cc1ccccc1	–	> 100 µM	> 100 µM	> 100 µM	> 100 µM	> 100 µM	> 100 µM	–	–
CCCCCCCC(=O)[O][Hg][CH2]C1COC([CH2][Hg][O]C(=O)CCCCCCC)CO1 (centres undefined)	30 µM	–	–	–	–	–	–	–	GI50 [1]: 15.6 µM
